Measurements from the supplement of paper PMC4862054.
Values joined by “and” are separate entries in the source; they are usually repeats but may differ in a detail not shown here. Equal values may be shown once.

Legend:
CAL-85-1 = conditions: 72 h
Method in brief: (§1)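 Breast cancer cell lines in 20 µl suspension were added to 384-well plates already holding compound at 5 concentrations, spaced in 10-fold steps across a compound-specific 10,000-fold range, and incubated for 72 h. CellTox Green fluorescence (485/520 nm) was read first to measure cell death, followed by CellTiter-Glo luminescence for viability after 10 min at room temperature. Each plate was normalised to 0.1 % DMSO and a positive kill control. EC50 values came from dose-response curve fits and were censored at the top concentration.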

MCF-10A = conditions: 72 h
Method in brief: as §1

SK-BR-3 [1] = conditions: 72 h
Method in brief: as §1

HDQ-P1 = conditions: 72 h
Method in brief: as §1

HCC1937 [2] = experiment: normalised viability (% of control), CellTiter-Blue; higher = more viable cells (about 100 = DMSO control); conditions: incubation time: 72 h
Method in brief: (§2)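 Seeded at 20 µl suspension per well onto compound-loaded 384-well plates, breast cancer cell lines were incubated 72 h. CellTiter-Blue fluorescence at 560/590 nm was then read, with each plate normalised to vehicle (100) and a positive kill control (0). Normalised viability is reported at a single listed concentration of the series.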

HCC1143 [3] = experiment: as above; conditions: incubation time: 72 h
Method in brief: as §2

SK-BR-3 [4] = experiment: as above; conditions: incubation time: 72 h
Method in brief: as §2

HCC1599 [5] = experiment: as above; conditions: incubation time: 72 h
Method in brief: as §2

HCC1937 [6] = conditions: 72 h
Method in brief: (§3)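 Rows with a drug sensitivity score of zero were dropped, and EC50 was taken from the fitted percent-inhibition dose-response curve, censored at the highest concentration. Data were normalised on each plate to vehicle and a positive kill control and checked by Z'-factor. The assay seeded breast cancer cell lines in 20 µl onto 384-well plates pre-loaded with compound in 5 µl medium for 72 h, then added 2.5 µl CellTiter-Blue for 2 h at 37 °C and read fluorescence at 560/590 nm.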

MDA-MB-231 [7] = conditions: 72 h
Method in brief: as §3

MDA-MB-436 [8] = conditions: 72 h
Method in brief: as §3

CAL-120 [9] = conditions: 72 h
Method in brief: as §3

Hs578T [10] = conditions: 72 h
Method in brief: as §3

MFM-223 [11] = conditions: 72 h
Method in brief: as §3

MDA-MB-468 [12] = conditions: 72 h
Method in brief: as §3

SK-BR-3 [13] = conditions: 72 h; remark: listed apart in the source
Method in brief: as §3

HCC1599 [14] = conditions: 72 h
Method in brief: as §3

BT-549 [15] = conditions: 72 h
Method in brief: as §3

CAL-120 [16] = conditions: 72 h; remark: listed apart in the source
Method in brief: as §1

BT-474 = conditions: 72 h
Method in brief: as §1

DU-4475 = conditions: 72 h
Method in brief: as §1

HCC1143 [17] = conditions: 72 h
Method in brief: as §3

MFM-223 [18] = conditions: 72 h; remark: listed apart in the source
Method in brief: as §1

MDA-MB-468 [19] = conditions: 72 h; remark: listed apart in the source
Method in brief: as §1

HCC1599 [20] = conditions: 72 h; remark: listed apart in the source
Method in brief: as §1

HCC1937 [21] = conditions: 72 h; remark: listed apart in the source
Method in brief: as §1

CAL-51 = conditions: 72 h
Method in brief: as §1

MDA-MB-231 [22] = conditions: 72 h; remark: listed apart in the source
Method in brief: as §1

MDA-MB-436 [23] = conditions: 72 h; remark: listed apart in the source
Method in brief: as §1

HCC1143 [24] = conditions: 72 h; remark: listed apart in the source
Method in brief: as §1

Hs578T [25] = conditions: 72 h; remark: listed apart in the source
Method in brief: as §1

BT-549 [26] = conditions: 72 h; remark: listed apart in the source
Method in brief: as §1

Structure (SMILES) | EC50, CellTiter-Glo (CAL-85-1) [µM] | EC50, CellTiter-Glo (MCF-10A) [µM] | EC50, CellTiter-Glo (HDQ-P1) [µM] | normalised viability (HCC1937 [2]; 1000 nM) | normalised viability (HCC1143 [3]; 1000 nM) | normalised viability (SK-BR-3 [4]; 1000 nM) | EC50, CellTiter-Blue viability (MDA-MB-231 [7]) [µM] | EC50, CellTiter-Blue viability (CAL-120 [9]) [µM] | EC50, CellTiter-Blue viability (Hs578T [10]) [µM] | EC50, CellTiter-Blue viability (MFM-223 [11]) [µM] | EC50, CellTiter-Blue viability (HCC1599 [14]) [µM] | EC50, CellTiter-Glo (CAL-120 [16]) [µM] | EC50, CellTiter-Glo (BT-474) [µM] | normalised viability (HCC1937 [2]; 1 nM) [%] | normalised viability (HCC1937 [2]; 100 nM) [%] | normalised viability (HCC1143 [3]; 1 nM) [%] | normalised viability (HCC1143 [3]; 100 nM) [%] | normalised viability (SK-BR-3 [4]; 1 nM) [%] | normalised viability (SK-BR-3 [4]; 100 nM) [%] | normalised viability (HCC1599 [5]; 1000 nM) [%] | further results
CS(=O)(=O)CCNCc1ccc(-c2ccc3ncnc(Nc4ccc(OCc5cccc(F)c5)c(Cl)c4)c3c2)o1 [Lapatinib] | 0.304 | 0.504 | 0.359 | 91.3% and 113% | 76.2% and 89% | 18.2% and 22.2% | 5.82 | 6.92 | 3.79 | 9.85 | 0.191 | – | – | – | – | – | – | – | – | – | EC50, CellTiter-Glo (SK-BR-3 [1]): 0.0498 µM; normalised viability (HCC1937 [2]; 10000 nM): 35.8% and 53.3%; normalised viability (HCC1143 [3]; 10 nM): 70.7% and 83.8%; normalised viability (HCC1143 [3]; 10000 nM): 71% and 82.7%; normalised viability (SK-BR-3 [4]; 10 nM): 78.8% and 92.4%; normalised viability (SK-BR-3 [4]; 10000 nM): 6.7% and 8.97%; normalised viability (HCC1599 [5]; 10 nM): 108% and 96.7%; normalised viability (HCC1599 [5]; 10000 nM): 63.5% and 83.8%; EC50, CellTiter-Blue viability (HCC1937 [6]): 6.28 µM; EC50, CellTiter-Blue viability (MDA-MB-436 [8]): 5.9 µM; EC50, CellTiter-Blue viability (MDA-MB-468 [12]): 1.56 µM; EC50, CellTiter-Blue viability (SK-BR-3 [13]): 0.0407 µM; EC50, CellTiter-Blue viability (BT-549 [15]): 4.32 µM
Cn1cnc2c(F)c(Nc3ccc(Br)cc3F)c(C(=O)NOCCO)cc21 [MEK-162] | – | 0.0118 | 0.0135 | 88.5% | 61.8% | 102% | 0.364 | – | – | – | 0.106 | > 1 | 0.113 | 72.6 | 94.8 | 100 | 70.7 | 111 | 111 | 76.5 | EC50, CellTiter-Glo (DU-4475): 0.0787 µM; normalised viability (HCC1599 [5]; 1 nM): 90.5%; normalised viability (HCC1599 [5]; 100 nM): 88.4%; EC50, CellTiter-Blue viability (HCC1143 [17]): 0.00921 µM
O=C(c1ccc(OCCN2CCCCC2)cc1)c1c(-c2ccc(O)cc2)sc2cc(O)ccc12 [Raloxifene] | 3.61 | – | – | 93.3% | 98.7% | 94.7% | – | – | – | – | – | – | 8.26 | – | – | – | – | – | – | 103 | EC50, CellTiter-Glo (MFM-223 [18]): 2.26 µM; EC50, CellTiter-Glo (MDA-MB-468 [19]): 4.64 µM; EC50, CellTiter-Glo (HCC1599 [20]): 9.62 µM; normalised viability (HCC1937 [2]; 10 nM): 89.3%; normalised viability (HCC1937 [2]; 10000 nM): 96.2%; normalised viability (HCC1143 [3]; 10 nM): 114%; normalised viability (HCC1143 [3]; 10000 nM): 96.8%; normalised viability (SK-BR-3 [4]; 10 nM): 94%; normalised viability (SK-BR-3 [4]; 10000 nM): 103%; normalised viability (HCC1599 [5]; 10 nM): 95.7%; normalised viability (HCC1599 [5]; 10000 nM): 102%
Cn1c(=O)c(F)c(Nc2ccc(I)cc2F)c2c(=O)n(C[C@@H](O)CO)cnc21 [TAK-733] | 0.125 | 0.00349 | 0.00697 | 74% | 56.4% | 112% | 0.00492 | 0.401 | 0.114 | 0.0175 | – | 0.0666 | 0.0335 | 121 | 104 | 94.1 | 68.6 | 106 | 102 | 70.5 | EC50, CellTiter-Glo (HCC1937 [21]): 0.341 µM; EC50, CellTiter-Glo (CAL-51): 0.00304 µM; EC50, CellTiter-Glo (MDA-MB-231 [22]): 0.13 µM; EC50, CellTiter-Glo (MDA-MB-436 [23]): 0.452 µM; EC50, CellTiter-Glo (DU-4475): 0.00703 µM; EC50, CellTiter-Glo (MFM-223 [18]): 0.371 µM; EC50, CellTiter-Glo (MDA-MB-468 [19]): 0.0298 µM; normalised viability (HCC1599 [5]; 1 nM): 94.8%; normalised viability (HCC1599 [5]; 100 nM): 74.6%; EC50, CellTiter-Blue viability (HCC1143 [17]): 0.0142 µM
CCS(=O)(=O)c1cccc(-c2cc(C(=O)NC3CCN(C)CC3)c(C)c3[nH]c4ncc(C)cc4c23)c1 [TAK-901] | – | 0.151 | 0.642 | 35.2% | 27.1% | 52% | 0.11 | 0.0944 | 0.125 | 0.0566 | 0.11 | 0.131 | 0.152 | 116 | 80.7 | 87.3 | 64.2 | 98.9 | 93.8 | 61.4 | EC50, CellTiter-Glo (HCC1143 [24]): 0.13 µM; EC50, CellTiter-Glo (MDA-MB-231 [22]): 0.144 µM; EC50, CellTiter-Glo (MDA-MB-436 [23]): 0.299 µM; EC50, CellTiter-Glo (Hs578T [25]): 0.445 µM; EC50, CellTiter-Glo (MFM-223 [18]): 0.123 µM; EC50, CellTiter-Glo (MDA-MB-468 [19]): 0.0262 µM; EC50, CellTiter-Glo (BT-549 [26]): 0.155 µM; normalised viability (HCC1599 [5]; 1 nM): 93.6%; normalised viability (HCC1599 [5]; 100 nM): 83%; EC50, CellTiter-Blue viability (HCC1937 [6]): 0.142 µM; EC50, CellTiter-Blue viability (HCC1143 [17]): 0.225 µM; EC50, CellTiter-Blue viability (MDA-MB-436 [8]): 0.214 µM; EC50, CellTiter-Blue viability (MDA-MB-468 [12]): 0.442 µM; EC50, CellTiter-Blue viability (BT-549 [15]): 0.126 µM
